From patent US8710183B2, “Inhibitors of bacterial tyrosine kinase and uses thereof” (Centre National de la Recherche Scientifique (C.N.R.S.), priority 2008, dated 2014)
Where no end group is shown, it is not given here.

Assays:
[1] = tested on: BY-kinase A1B2 (substrate CapO); assay: Procedure 2: inhibition of CapO phosphorylation by A1B2 (radioactivity incorporated in CapO); assay type: biochemical, Staphylococcus aureus; details: A1B2 50 pmol, CapO 50 pmole
Procedure: The procedure 2 is based on procedure 1, except that 5 pmole to 100 pmole of the protein substrate are also added either in the same time as the drug or concomitant with the radioactive ATP and the non-radioactive ATP.
(§1) The procedure was applied for A1B2 [34] and CapO [20] Each Gene has been cloned in the pQE30 vector (Qiagen) to allow fusion of a histidines-tag fused to the N-terminal end of either A1B2 or CapO. This overproducing plasmid has been transformed in the Escherichia coli XL 1-blue strain. Cells have been incubated at 37° C. under shaking until A600 reached 0.5. IPTG was then added at a final concentration of 0.5 mM, and growth was continued for 3 h at 37° C. under shaking. Cells were harvested by centrifugation at 3000×g for 10 min, washed in buffer A (Tris-HCl 50 mM pH7.5, Nacl 200 mM, glycerol 10%, imidazole 10 mM) containing DNase I and RNase A at a final concentration of […] each, lysozyme 1 mg/ml, and protease inhibitors cocktail. Cells were disrupted by sonication. The resulting suspension was centrifuged at 4° C. for 30 min at 30,000×g. The supernatant was incubated with Ni-NTA matrix (Qiagen), suitable for purification of 6 histidines fusion proteins, for 30 min at 4° C. under gentle shaking. The protein-resin complex was packed into a column for washing and elution steps. The column was washed with buffer B (Tris-HCl 50 mM pH7.5, Nacl 200 mM, glycerol 10%, imidazole 20 mM). Protein elution was carried out with buffer C (Tris-HCl 50 mM pH7.5, NaCl 200 mM, glycerol 10%, imidazole 150 mM). Eluted fractions were collected, analyzed by SDS-PAGE. Appropriated fractions are pooled and dialyzed overnight against buffer D (Tris-HCl 50 mM, pH7.5, NaCl 100 mM, DTT 1 mM, MgCl2 1 mM, glycerol 20%) and used for inhibitory tests or stored at +4° C., −20° C., or −80° C.
According to procedure 2, 50 pmol of A1B2 and 50 pmole of a substrate of A1B2, namely the protein CapO, were incubated with either 50 pmole, or 500 pmole, or 5 nmol of BYK001 for 15 min at 37° C. in a final volume of […]. Then, incubation was continued for 30″, or 1′, or 2′ or 5′ in the presence of […] of [g-^32P] ATP (specific activity 3000 Ci/mmole). The amount of radioactivity incorporated in CapO was determined by fluid scintillation counting after gel-electophoresis. The percentage of inhibition of CapO phosphorylation by A1B2 is expressed relatively to CapO radioactivity when incubation was performed without BYK001.

BY-kinase A1B2 = assay: Procedure 1: inhibition of A1B2 autokinase activity (radioactivity incorporated in A1B2); assay type: biochemical, Staphylococcus aureus; set-up: ActivitY (inhibition): concentration or dose not given beside the values; details: for % of inhibition of A1B2 autokinase activity / Radioactivity incorporated in A1B2: A1B2 50 pmole
Procedure: 50 pmole of the purified BY-kinase (or the dephosphorylated BY-kinase) are incubated for 15 min to 1 hour in the presence of 50 pmole of the drug in a final volume of 20 microliters. The ratio BY-kinase/drug varies from 1/1 to 1/100. The reaction is performed in a buffer specific of each BY-kinase (pH condition, salt concentrations, etc.). The incubation is then continued for 30″ to 1 h in the presence of 5 microCurie of radioactive ATP (^32P or ^33P) labeled on g-P (specific activity 3000 Ci/mmole) and 50 microMolar non-radioactive ATP. The reaction is stopped by adding 5 microliter of gel-electrophoresis loading buffer 5 fold concentrate and heating 5 min at 100° C.
as §1
According to procedure 1, 50 pmole of A1B2 were incubated with either, 0 pmole, 50 pmole, or 500 pmole, or 5 nmol of BYK001 for 15 min at 37° C. in a final volume of […]. Then, incubation was continued for 30″, or 1′, or 2′ or 5′ in the presence of […] of [g-^32P] ATP (specific activity 3000 Ci/mmole). The amount of radioactivity incorporated in A1B2 was determined by fluid scintillation counting after gel-electophoresis. The percentage of inhibition of A1B2 autokinase activity is expressed relatively to the radioactivity incorporated in A1B2 when incubated without BYK001.

[2] = BYK001 50 pmole, incubation time 0.5 min
[3] = BYK001 50 pmole, incubation time 1 min
[4] = BYK001 50 pmole, incubation time 2 min
[5] = BYK001 50 pmole, incubation time 5 min
[6] = BYK001 500 pmole, incubation time 0.5 min
[7] = BYK001 500 pmole, incubation time 1 min
[8] = BYK001 500 pmole, incubation time 2 min
[9] = BYK001 500 pmole, incubation time 5 min
[10] = BYK001 5000 pmole, incubation time 0.5 min
[11] = BYK001 5000 pmole, incubation time 1 min
[12] = BYK001 5000 pmole, incubation time 2 min
[13] = BYK001 5000 pmole, incubation time 5 min

Substance: BYK001: peptide with adenine PNA on lysine side chain: S-A-S-Y-Y-A-Y-K(PNA)-G-T-D; native S. aureus tyrosine cluster sequence (SASYYAYK(adenine PNA)GTD)
- % of inhibition of CapO phosphorylation by A1B2 [1, 2]: 10.05%
- Radioactivity incorporated in CapO [1, 2]: 3555 cpm
- % of inhibition of CapO phosphorylation by A1B2 [1, 3]: 9.33%
- Radioactivity incorporated in CapO [1, 3]: 6388 cpm
- % of inhibition of CapO phosphorylation by A1B2 [1, 4]: 10.69%
- Radioactivity incorporated in CapO [1, 4]: 15498 cpm
- % of inhibition of CapO phosphorylation by A1B2 [1, 5]: 8.11%
- Radioactivity incorporated in CapO [1, 5]: 31901 cpm
- % of inhibition of CapO phosphorylation by A1B2 [1, 6]: 11.51%
- Radioactivity incorporated in CapO [1, 6]: 3497 cpm
- % of inhibition of CapO phosphorylation by A1B2 [1, 7]: 10.55%
- Radioactivity incorporated in CapO [1, 7]: 6302 cpm
- % of inhibition of CapO phosphorylation by A1B2 [1, 8]: 10.40%
- Radioactivity incorporated in CapO [1, 8]: 15549 cpm
- % of inhibition of CapO phosphorylation by A1B2 [1, 9]: 9.99%
- Radioactivity incorporated in CapO [1, 9]: 31251 cpm
- % of inhibition of CapO phosphorylation by A1B2 [1, 10]: 11.11%
- Radioactivity incorporated in CapO [1, 10]: 3513 cpm
- % of inhibition of CapO phosphorylation by A1B2 [1, 11]: 10.36%
- Radioactivity incorporated in CapO [1, 11]: 6315 cpm
- % of inhibition of CapO phosphorylation by A1B2 [1, 12]: 10.85%
- Radioactivity incorporated in CapO [1, 12]: 15471 cpm
- % of inhibition of CapO phosphorylation by A1B2 [1, 13]: 10.78%
- Radioactivity incorporated in CapO [1, 13]: 30974 cpm
- % of inhibition of A1B2 autokinase activity (BY-kinase A1B2; [2]): 17.54%
- Radioactivity incorporated in A1B2 (BY-kinase A1B2; [2]): 29233 cpm
- % of inhibition of A1B2 autokinase activity (BY-kinase A1B2; [3]): 16.10%
- Radioactivity incorporated in A1B2 (BY-kinase A1B2; [3]): 71683 cpm
- % of inhibition of A1B2 autokinase activity (BY-kinase A1B2; [4]): 16.63%
- Radioactivity incorporated in A1B2 (BY-kinase A1B2; [4]): 132537 cpm
- % of inhibition of A1B2 autokinase activity (BY-kinase A1B2; [5]): 14.68%
- Radioactivity incorporated in A1B2 (BY-kinase A1B2; [5]): 325711 cpm
- % of inhibition of A1B2 autokinase activity (BY-kinase A1B2; [6]): 13.31%
- Radioactivity incorporated in A1B2 (BY-kinase A1B2; [6]): 30734 cpm
- % of inhibition of A1B2 autokinase activity (BY-kinase A1B2; [7]): 15.17%
- Radioactivity incorporated in A1B2 (BY-kinase A1B2; [7]): 72475 cpm
- % of inhibition of A1B2 autokinase activity (BY-kinase A1B2; [8]): 15.95%
- Radioactivity incorporated in A1B2 (BY-kinase A1B2; [8]): 133624 cpm
- % of inhibition of A1B2 autokinase activity (BY-kinase A1B2; [9]): 14.87%
- Radioactivity incorporated in A1B2 (BY-kinase A1B2; [9]): 324983 cpm
- % of inhibition of A1B2 autokinase activity (BY-kinase A1B2; [10]): 15.67%
- Radioactivity incorporated in A1B2 (BY-kinase A1B2; [10]): 29899 cpm
- % of inhibition of A1B2 autokinase activity (BY-kinase A1B2; [11]): 15.11%
- Radioactivity incorporated in A1B2 (BY-kinase A1B2; [11]): 72528 cpm
- % of inhibition of A1B2 autokinase activity (BY-kinase A1B2; [12]): 11.30%
- Radioactivity incorporated in A1B2 (BY-kinase A1B2; [12]): 141005 cpm
- % of inhibition of A1B2 autokinase activity (BY-kinase A1B2; [13]): 15.20%
- Radioactivity incorporated in A1B2 (BY-kinase A1B2; [13]): 323749 cpm
- ActivitY (inhibition) (BY-kinase A1B2; Table 5, inhibition of BY-kinase A1B2): 15.00%
- inhibitory effect on BY-kinase A1B2 (BY-kinase A1B2; conclusion from procedures 1 and 2): inhibitory effect
- inhibition (BY-kinase A1B2; summary): around 15%
